Here are results for two compounds from patent US7510836B2, “Alpha arteether resistance domain” (priority 2003, dated 2009).

One data set deals with malaria. The settings on record: cited from earlier work.
For data set [1] the following is noted: cited from earlier work.
For data set [2] the following is noted: cited from earlier work. This is another data set of the same source.
A further data set relates to E. coli DH5 α (gyrA−). Description: Disc diffusion, zone of inhibition. Type of data set: cell-based, Escherichia coli. As to conditions: 250 μg/disc, Luria agar. The procedure: (§1) To ascertain the involvement of gyrA mutation, another E.coli strain NK 5819 which is also GyrA″ and nalidixic acid resistant was tested for arteether sensitivity. As expected, strain NK5819 was also sensitive only to a-isomer of arteether. […] The assays for arteether sensitivity was performed by the standard single disk diffusion method (Bauer et al, 1966). As a next step, we isolated gyrA mutants of E.coli strain CA 8000, which is otherwise Gyr+ and nalidixic acid sensitive. The gyrA mutants of CA8000 were isolated as nalidixic acid resistant colonies (20 ug/ml), after mutagenic treatment with NTG ([…]). The isolated CA8000 gyrA mutants were also sensitive only to a isomer of arteether. […] To define precisely the involvement of gyr genes only in the a-arteether sensitivity, we utilised two recombinant clones (pMK 90 and pMK47 containing functional gyr A and gyrB genes respectively) in trans-complementation assays. For this purpose, we mobilized the plasmid clones into the E.coli gyr mutant strains. The resulting transformants were now nalidixic acid sensitive and a-arteether resistant. This constituted the direct evidence supporting our observation that DNA gyrase enzyme alone is involved in conferring a-arteether sensitivity to E.coli strain. […] DNA gyrase enzyme is essential for the bacterial growth. This enzyme transiently breaks the DNA strands and introduces negative superhelical turns in an ATP-dependent process. The E.coli DNA gyrase enzyme is a tetramer with two subunits A and B. These two subunits are nalidixic acid and coumermycin sensitive respectively (U.S. Pat. No. 6,127,405 and a co-pending patent).
(§2) The strains of E coli mutants were grown on Luria agar medium and beta-arteether (250 μg/disc) was applied on disc. The clear zone around the disc killing the bacteria is called Zone of Inhibition (ZOI). This is the measure of sensitivity of the strain towards the compound […].

The test system of a further data set is E. coli ET8000 (gyrA−). The experiment in a line: Disc diffusion, zone of inhibition. As to conditions: 250 μg/disc, Luria agar. It counts as cell-based, Escherichia coli. The procedure:
as §1, §2
In general terms: In agar diffusion tests the substance spreads into inoculated agar from a disc or well.

The next data set deals with E. coli NK5819 (gyrA−). The experiment in a line: Disc diffusion, zone of inhibition. It counts as cell-based, Escherichia coli. The settings on record: 250 μg/disc, Luria agar. The procedure: as §1, §2
Another data set concerns E. coli mutant CA8001. Description: Disc diffusion, zone of inhibition. It counts as cell-based, Escherichia coli. As to conditions: 250 μg/disc, Luria agar. The method, then: as §1
(§3) In order to develop an arteether resistant mutants from an arteether sensitive strains a reverse strategy was applied. Quinoline/fluoroquinolone (Q/FQs) resistant strains were developed spontaneously i.e. screening overnight log phase culture of the Quinolone/fluoroquinolone sensitive i.e. arteether resistant strain (E coli CA 8000) on the poison agar plate of the Q/FQs. The Q/FQ resistant mutants which appeared on the poison agar plates were first purified through single colony purification and then checked for their arteether sensitivity. These arteether sensitive mutants on the contrary when checked for their Q/Fqs resistance they show different level of Q/FQs resistance.
as §2

Another data set has as its system E. coli mutant CA8002. Description: Disc diffusion, zone of inhibition. Type of data set: cell-based, Escherichia coli. As to conditions: 250 μg/disc, Luria agar. The procedure:
as §1, §3, §2

The next data set has as its system E. coli mutant CA8003. The experiment in a line: Disc diffusion, zone of inhibition. It counts as cell-based, Escherichia coli. As to conditions: 250 μg/disc, Luria agar. The method, then: as §1, §3, §2
A further data set deals with E. coli mutant CA8006. The experiment in a line: Disc diffusion, zone of inhibition. It counts as cell-based, Escherichia coli. The settings on record: 250 μg/disc, Luria agar. The method, then:
as §1, §3, §2

The test system of a further data set is E. coli mutant CA8007. The experiment in a line: Disc diffusion, zone of inhibition. Type of data set: cell-based, Escherichia coli. As to conditions: 250 μg/disc, Luria agar. The procedure:
as §1, §3, §2

A further data set relates to E. coli mutant CA8009. Description: Disc diffusion, zone of inhibition. The settings on record: 250 μg/disc, Luria agar. It counts as cell-based, Escherichia coli. The method, then:
as §1, §3, §2

The test system of another data set is E. coli mutant CA8010. The experiment in a line: Disc diffusion, zone of inhibition. Type of data set: cell-based, Escherichia coli. As to conditions: 250 μg/disc, Luria agar. The procedure: as §1, §3, §2
The test system of the next data set is E. coli mutant CA8012. Description: Disc diffusion, zone of inhibition. The settings on record: 250 μg/disc, Luria agar. It counts as cell-based, Escherichia coli. The method, then:
as §1, §3, §2

Data set [3] has as its system gyr mutant strains of E.coli. The experiment in a line: Arteether sensitivity of gyr mutants. Type of data set: cell-based, Escherichia coli. As to conditions: gyr mutants DH5a, NK5819, MTCC 482, CA8000 gyrA mutants. The method, then:
as §1, with “This enzyme transiently breaks the DNA strands and introduces negative superhelical turns in an ATP-dependent process. The E.coli DNA gyrase enzyme is a tetramer with two subunits A and B. These two subunits are nalidixic acid and coumermycin sensitive respectively (U.S. Pat. No. 6,127,405 and a co-pending patent).” left out

Regarding `C[C@@H]1CC[C@H]2[C@@H](C)C(=O)O[C@@H]3O[C@@]4(C)CC[C@@H]1[C@]32OO4` [Artemisinin, artemisinin], the Plasmodicidal property result in the data set with malaria was “high plasmodicidal property”. Also, the half-life entry in data set [1] is given as “short”. Also, the “Solubility in most aprotic solvents” value in data set [2] (aprotic solvents) is recorded as “readily soluble”. For the same compound, the “Solubility in water and oil” value in data set [2] (water and oil) is on record as “poorly soluble”.
With `CCO[C@H]1O[C@@H]2O[C@@]3(C)CC[C@H]4[C@H](C)CC[C@@H]([C@H]1C)[C@@]24OO3` [beta-arteether], the “Net ZOI in mm” value in the data set with E. coli DH5 α (gyrA−) was found to be 5 mm; in the data set with E. coli ET8000 (gyrA−) it was 5 mm; with E. coli NK5819 (gyrA−), 7 mm; with E. coli mutant CA8001, 10 mm; in the data set with E. coli mutant CA8002, 5 mm; in the data set on E. coli mutant CA8003, 9 mm. Besides, the “Net ZOI in mm” value in the data set with E. coli mutant CA8006 is reported as 11 mm; in the data set on E. coli mutant CA8007 it was 8 mm; in the data set with E. coli mutant CA8009, 14 mm; in the data set with E. coli mutant CA8010 it was 10 mm; in the data set with E. coli mutant CA8012 it was 8 mm. The “Sensitivity” value in data set [3] is “none of the above described gyr mutants were sensitive”.
